Legend:
RAD51 in HCT116 cells = assay: RAD51 protein levels by Western blotting in HCT116 cells; format: cell-based; conditions: by 24 hours, HCT-116 in vitro
Method: (§1) To explore this further, we analyzed levels of RAD51, an essential protein in HR, by Western blotting and immunofluorescence. Following exposure of HCT116 cells to doses of the test compound ranging from 0.2 μM to 2.0 μM, RAD51 levels decreased to 20% of control by 24 hr, but remained unchanged at 6 hr. […] Finally, RAD51 nuclear foci were visualized following γ-irradiation.
For determination of protein levels by Western blot, cellular extracts are prepared as follows. Cells are harvested by scraping; washed with PBS and pelleted by centrifugation. Cell pellets (from 100 mm plate) are resuspended with 200 μl B3 buffer containing protease inhibitors shaken at 4° C. for 10 min and centrifuge at 12,000 rpm at 4° C. in Tomy microcentrifuge for 10 minutes. To make 1 liter of B3 buffer, add 1 ml of NP-40, 50 ml of 5 M NaCl, 10 ml of […], 50 ml of 1 M Tris HCl at pH7.5 to 889 ml dH2O. The day of cell harvest protease inhibitors are added to B3 buffer (aprotinin, leupeptin and pepstatin to a final concentration of 2 μg/ml, 5 μg/ml and 0.7 μg/ml, respectively). […] Sample protein concentrations are determined by the Bradford Assay (BioRad; Richmond, Calif.). […]
Western Blot Analysis: Cell lines [al NHL except for Jurkat (T-cll leukemia) and K562 (CML)] were treated with PCI-24781 for the designated times, lysed and total protein was quantitated and western blot analysis performed. […]

[1] = tested on: RAD51 transcript in HCT116 cells; assay: RAD51 transcript levels by real time PCR in HCT116 cells; format: cell-based; conditions: by 24 hours, HCT-116 in vitro
[2] = tested on: RAD51 foci in irradiated HCT-116 cells; assay: RAD51 nuclear foci following γ-irradiation; format: cell-based; conditions: pretreatment for 24 hours
Method: as §1
Monolayer cultures of different cells are grown in Dulbecco's MEM medium supplemented with 10% fetal bovine serum and antibiotics. The cells are detached from culture flasks by gentle trypsinization, pelleted and resuspended in phosphate buffered saline (PBS; 136 mM NaCl, 2 mM KCG, 10.6 mM NaHPO4, 1.5 mM KH2PO4 [pH 7.3]) prewarmed at 37° C. (Haaf, et al., 1995, Proc. Natl. Acad. Sci. USA 92: 2298-2302). Cultured cells are washed and resuspended in PBS. The density of somatic cells is adjusted to about 10^5 cells per ml in PBS. Aliquots (0.5 ml) of the cell suspension are centrifuged onto clean glass slides at 800 rpm for 4 min, in a Cytospin (Shandon, Pittsburg). Immediately after cytocentrifugation, the slides are fixed in −20° C. methanol for 30 min and then immersed in ice-cold acetone for a few seconds to permealize the cells for antibody staining. […]

[3] = tested on: RAD51 protein in NHL cell lines; assay: RAD51 protein downregulation in Non-Hodgkins lymphoma cell lines (Western blot); format: cell-based; conditions: 24 hours, most of the cell lines tested
Method: (§2) Western Blot Analysis: Cell lines [al NHL except for Jurkat (T-cll leukemia) and K562 (CML)] were treated with PCI-24781 for the designated times, lysed and total protein was quantitated and western blot analysis performed. RAD51 and Actin antibodies were from Santa Cruz.

[4] = tested on: RAD51 protein in HH cutaneous T-cell lymphoma cell line; assay: RAD51 protein downregulation in HH cell line (Western blot); format: cell-based; conditions: 24 hours
Method: as §2

[5] = tested on: RAD51 mRNA in lymphoma cell lines; assay: RAD51 mRNA by Taqman RT-PCR in lymphoma cell lines; format: cell-based
Method: (§3) Tagman Gene Expression Assays: 10 lymphoma cell lines were treated with PCI-24781 for various times and total RNA was isolated and quantitated. Taqman assays were set up using the Taqman master mix (Applied Biosystems) and 50 ng of total RNA as template. Gene expression assay probe sets for RAD51 was purchased from Applied Biosystems.
(§4) Cell lines were treated with 3-((dimethylamino)methyl)-N-(2-(4-(hydroxycarbamoyl)phenoxy)ethyl)benzofuran-2-carboxamide for 24 hours, and RAD51 mRNA was analyzed by Taqman RT-PCR.

[6] = tested on: RAD51 mRNA in HH cell line; assay: RAD51 mRNA by Taqman RT-PCR in HH cell line; format: cell-based; conditions: 24 hours
Method: as §3, §4

lymphoma cell lines = assay: Apoptosis by Annexin V-FITC flow cytometry in lymphoma cell lines; format: cell-based
Method: (§5) 3-((dimethylamino)methyl)-N-(2-(4-(hydroxycarbamoyl)phenoxy)ethyl)benzofuran-2-carboxamide induced apoptosis in lymphoma cell lines after a 48 hour incubation measured by Annexin V-FITC flow cytometry. […] Thus, both the initial level of RAD51 in tumors as well as the fold decrease after treatment are predictive for 3-((dimethylamino)methyl)-N-(2-(4-(hydroxycarbamoyl)phenoxy)ethyl)benzofuran-2-carboxamide activity, and in some embodiments is used as biomarkers in clinical studies to identify patients most likely to respond to 3-((dimethylamino)methyl)-N-(2-(4-(hydroxycarbamoyl)phenoxy)ethyl)benzofuran-2-carboxamide.

HH lymphoma line = assay: Apoptosis by Annexin V-FITC flow cytometry in HH line; format: cell-based
Method: as §5

[7] = tested on: DHL-4 Non-Hodgkins cell line; assay: Combination with doxorubicin in DHL-4; format: cell-based; conditions: administered simultaneously
[8] = tested on: DLCL2 Non-Hodgkins cell line; assay: Combination with doxorubicin in DLCL2; format: cell-based; conditions: administered simultaneously
HH cell line = assay: Combination with doxorubicin in HH; format: cell-based; conditions: administered simultaneously
[9] = tested on: RAD51 in HCT-116 mouse xenografts; assay: RAD51 levels in HCT-116 xenograft tumors; conditions: HCT-116, in vivo (not shown)
Method: Also shown are RAD51 levels and actin levels after extraction of tumor from HCT-116 mouse xenografts with different dosing regimens. 1× animals received a single oral dose 4 hours before the end of the study; 2× animals received one oral dose 28 hours before the end of the study and received a second dose 6 hours later; 3× animals were dosed as in the 2× but also received a third dose the following morning, 24 hours after the first dose was administered and 4 hours before the end of the study. Fold changes in protein levels were quantitated by using Odyssey software and were normalized to the levels of the actin loading control.
3-((dimethylamino)methyl)-N-(2-(4-(hydroxycarbamoyl)phenoxy)ethyl)benzofuran-2-carboxamide pretreatment for 24 hours also lead to complete loss of RAD51 foci in the nuclei of irradiated HCT-116 cells (not shown; see Adimoolam et al. 2007, PNAS epub Nov. 27 the experiment, which is herein incorporated by reference).

CN(C)Cc1c(C(=O)NCCOc2ccc(C(=O)NO)cc2)oc2ccccc12 [3-((dimethylamino)methyl)-N-(2-(4-(hydroxycarbamoyl)phenoxy)ethyl)benzofuran-2-carboxamide]
RAD51 protein levels (RAD51 in HCT116 cells): downregulating RAD51
RAD51 mRNA levels [1]: downregulating RAD51
RAD51 foci in the nuclei [2]: complete loss
RAD51 protein levels [3]: downregulated RAD51 protein levels in a dose-dependent manner
RAD51 protein levels ([3]; listed as 3-((dimethylamino)methyl) -N-(2-(4-(hydroxycarbamoyl)phenoxy)ethyl)benzofuran-2-): downregulated RAD51 protein levels
effect on RAD51 protein levels [4]: least effect
downregulation of RAD51 mRNA expression ([5]; 24 hours, most of the cell lines): more than 2 fold
decrease in RAD51 mRNA ([5]; the five cell lines with >70% apoptosis): > 4 fold
RAD51 mRNA change [6]: no decrease
apoptotic cell death (lymphoma cell lines; 48 hour incubation, all the lines except HH): dose-dependent increase in apoptotic cell death
apoptosis (lymphoma cell lines; at 24 hrs, all the lines): lower levels of apoptosis
apoptosis following drug treatment (lymphoma cell lines; five most sensitive cell lines): > 70%
apoptosis (HH lymphoma line): least % apoptosis
combination effect with doxorubicin [7]: synergistic effects
combination effect with doxorubicin [8]: synergistic effects
combination effect with doxorubicin (HH cell line): less than additive
RAD51 levels in vivo [9]: downregulating RAD51

Reference: patent US9408816B2, “Method of using histone deacetylase inhibitors and monitoring biomarkers in combination therapy” (Pharmacyclics LLC, priority 2006, dated 2016)
